Values joined by “and” are separate entries in the source; they are usually repeats but may differ in a detail not shown here. Identical values can stand only once.

The text below walks through data of patent US20230159453A1 (COCRYSTAL PHARMA, INC., priority 2020, published 2023).

The test concerns the target SARS2 protease (Severe acute respiratory syndrome coronavirus 2, UniProt P0DTD1). As to the kind of experiment: SARS-CoV-2 protease inhibition assay (SARS2 FRET protease assay). The class given is biochemical. To be noted: SARS-CoV-2 protease 25 nM, FRET, peptide substrate 1.3 μM, 30 minutes at 30° C., compounds 20 μM to 1.0 nM; read-out: IC50.

Turning to `CC(C)C[C@H](NC(=O)N(Cc1ccccc1)C1CCN(C(=O)OC(C)(C)C)CC1)C(=O)N[C@@H](C[C@@H]1CCNC1=O)C(O)S(=O)(=O)O` (stereo partly drawn) [Compound C40, (2S)-2-((S)-2-(3-benzyl-3-(1-(tert-butoxycarbonyl)piperidin-4-yl)ureido)-4-methylpentanamido)-1-hydroxy-3-((S)-2-oxopyrrolidin-3-yl)propane-1-sulfonate], the IC50 is 173 nM and 221 nM. In the case of `CCOP(=O)(OCC)C(O)C(CC1CC(Cc2ccccc2)NC1=O)NC(=O)[C@H](CC1CCCCC1)NC(=O)OCc1cccc(Cl)c1` (stereo partly drawn) [Compound C41, 3-Chlorobenzyl ((2S)-1-((3-(5-benzyl-2-oxopyrrolidin-3-yl)-1-(diethoxyphosphoryl)-1-hydroxypropan-2-yl)amino)-3-cyclohexyl-1-oxopropan-2-yl)carbamate], the IC50 worked out at 308 nM.

Consider `COc1cccc(CC2(OC(=O)N[C@@H](CC(C)C)C(=O)N[C@H](C=O)C[C@@H]3CCNC3=O)CC2)c1` [Compound C42, 1-(3-Methoxybenzyl)cyclopropyl ((S)-4-methyl-1-oxo-1-(((S)-1-oxo-3-((S)-2-oxopyrrolidin-3-yl)propan-2-yl)amino)pentan-2-yl)carbamate], for which the IC50 came to 356 nM. As for `CC(C)C[C@H](NC(=O)OC1CCCC1Cc1ccccc1)C(=O)N[C@H](C=O)C[C@@H]1CCNC1=O` (stereo partly drawn) [Compound C43, 2-benzylcyclopentyl ((S)-4-methyl-1-oxo-1-(((S)-1-oxo-3-((S)-2-oxopyrrolidin-3-yl)propan-2-yl)amino)pentan-2-yl) carbamate], the IC50 was determined as 56 nM. With `CC(C)C[C@H](NC(=O)OC1(Cc2ccccc2)CC1)C(=O)N[C@H](C=O)C[C@@H]1CCNC1=O` [Compound C44, 1-Benzylcyclopropyl ((S)-4-methyl-1-oxo-1-(((S)-1-oxo-3-((S)-2-oxopyrrolidin-3-yl)propan-2-yl)amino)pentan-2-yl) carbamate], the IC50 was 331 nM.

With `CC(C)C[C@H](NC(=O)OC1(Cc2cccc(Cl)c2)CC1)C(=O)N[C@H](C=O)C[C@@H]1CCNC1=O` [Compound C45, 1-(3-Chlorobenzyl) cyclopropyl ((S)-4-methyl-1-oxo-1-(((S)-1-oxo-3-((S)-2-oxopyrrolidin-3-yl)propan-2-yl)amino)pentan-2-yl)carbamate], the IC50 is 304 nM. Turning to `CC(C)C[C@H](NC(=O)OC(C)(C)Cc1ccccc1)C(=O)N[C@H](C=O)C[C@@H]1CCNC1=O` [Compound C46, 2-Methyl-1-phenylpropan-2-yl ((S)-4-methyl-1-oxo-1-(((S)-1-oxo-3-((S)-2-oxopyrrolidin-3-yl)propan-2-yl)amino)pentan-2-yl) carbamate], the half-maximal inhibitory concentration (IC50) stood at 1380 nM.

As to `CC(C)C[C@H](NC(=O)OC1(Cc2ccccc2)CC1)C(=O)N[C@@H](C[C@@H]1CCNC1=O)C(O)S(=O)(=O)O` (stereo partly drawn) [Compound C48, (2S)-2-((S)-2-(((1-Benzylcyclopropoxy)carbonyl)amino)-4-methylpentanamido)-1-hydroxy-3-((S)-2-oxopyrrolidin-3-yl) propane-1-sulfonate], the IC50 amounted to 241 nM. Consider `COc1cccc(CC2(OC(=O)N[C@@H](CC(C)C)C(=O)N[C@@H](C[C@@H]3CCNC3=O)C(O)S(=O)(=O)O)CC2)c1` (stereo partly drawn) [Compound C49, (2S)-1-Hydroxy-2-((S)-2-(((1-(3-methoxybenzyl)cyclopropoxy)carbonyl)amino)-4-methylpentanamido)-3-((S)-2-oxopyrrolidin-3-yl)propane-1-sulfonate], for which the IC50 came out at 266 nM. Regarding `CC(C)C[C@H](NC(=O)OC(C)Cc1ccccc1)C(=O)N[C@@H](C[C@@H]1CCNC1=O)C(O)S(=O)(=O)O` (stereo partly drawn) [Compound C50, (2S)-1-Hydroxy-2-((2S)-4-methyl-2-((((1-phenylpropan-2-yl)oxy)carbonyl)amino)pentanamido)-3-((S)-2-oxopyrrolidin-3-yl)propane-1-sulfonate], the IC50 stood at 119 nM. In the case of `CC(C)C[C@H](NC(=O)OC1CCN(C(=O)OC(C)(C)C)CC1)C(=O)N[C@@H](C[C@@H]1CCNC1=O)C(O)S(=O)(=O)O` (stereo partly drawn) [Compound C51, (2S)-2-((S)-2-((((1-(tert-butoxycarbonyl)piperidin-4-yl)oxy)carbonyl)amino)-4-methylpentanamido)-1-hydroxy-3-((S)-2-oxopyrrolidin-3-yl) propane-1-sulfonate], the IC50 is 115 nM. Then `O=CC(CC1CC(Cc2ccccc2)NC1=O)NC(=O)[C@H](CC1CCCCC1)NC(=O)OCc1cccc(Cl)c1` (stereo partly drawn) [Compound C52, 3-Chlorobenzyl ((2S)-1-((1-(5-benzyl-2-oxopyrrolidin-3-yl)-3-oxopropan-2-yl)amino)-3-cyclohexyl-1-oxopropan-2-yl)carbamate], with 500 nM; and `CC(C)C[C@H](NC(=O)OC(Cc1ccccc1)c1ccccc1)C(=O)N[C@@H](C[C@@H]1CCNC1=O)C(O)S(=O)(=O)O` (stereo partly drawn) [Compound C53, (2S)-2-((2S)-2-(((1,2-Diphenylethoxy)carbonyl)amino)-4-methylpentanamido)-1-hydroxy-3-((S)-2-oxopyrrolidin-3-yl)propane-1-sulfonate], with 40 nM; and `CC(=O)N1CCC2(CC1)CC(CC(C=O)NC(=O)[C@H](CC(C)C)NC(=O)OCc1cccc(Cl)c1)C(=O)N2` (stereo partly drawn) [Compound C54, 3-Chlorobenzyl ((2S)-1-((1-(8-acetyl-2-oxo-1,8-diazaspiro[4.5]decan-3-yl)-3-oxopropan-2-yl)amino)-4-methyl-1-oxopentan-2-yl)carbamate], with 100 nM. To `CC(C)C[C@H](NC(=O)OC1(Cc2ccccc2)CCC1)C(=O)N[C@H](C=O)C[C@@H]1CCNC1=O` [Compound C56, 1-benzylcyclobutyl ((S)-4-methyl-1-oxo-1-(((S)-1-oxo-3-((S)-2-oxopyrrolidin-3-yl)propan-2-yl)amino)pentan-2-yl)carbamate] belongs 600 nM. For the compound `CC(C)C[C@H](NC(=O)OC(C)(C)Cc1ccccc1)C(=O)N[C@@H](C[C@@H]1CCNC1=O)C(O)S(=O)(=O)O` (stereo partly drawn) [Compound C57, (2S)-1-hydroxy-2-((S)-4-methyl-2-((((2-methyl-1-phenylpropan-2-yl)oxy)carbonyl)amino)pentanamido)-3-((S)-2-oxopyrrolidin-3-yl)propane-1-sulfonate], the IC50 amounted to 800 nM.

For the compound `CC(C)C[C@H](NC(=O)OC1CCN(C(=O)OC(C)(C)C)c2ccccc21)C(=O)N[C@@H](C[C@@H]1CCNC1=O)C(O)S(=O)(=O)O` (stereo partly drawn) [Compound C58, (2S)-2-((2S)-2-((((1-(tert-butoxycarbonyl)-1,2,3,4-tetrahydroquinolin-4-yl)oxy)carbonyl)amino)-4-methylpentanamido)-1-hydroxy-3-((S)-2-oxopyrrolidin-3-yl) propane-1-sulfonate], the IC50 is 100 nM.

For `CC(C)C[C@H](NC(=O)OC1CCN(C(=O)OC(C)(C)C)c2ccccc21)C(=O)N[C@H](C=O)C[C@@H]1CCNC1=O` (stereo partly drawn) [Compound C59, Tert-butyl 4-((((S)-4-methyl-1-oxo-1-(((S)-1-oxo-3-((S)-2-oxopyrrolidin-3-yl)propan-2-yl)amino)pentan-2-yl)carbamoyl)oxy)-3,4-dihydroquinoline-1(2H)-carboxylate], the IC50 amounted to 100 nM. Then `CC(C)C[C@H](NC(=O)OC1(Cc2cccc(OCc3ccccc3)c2)CC1)C(=O)N[C@H](C=O)C[C@@H]1CCNC1=O` [Compound C60, 1-(3-(Benzyloxy)benzyl)cyclopropyl ((S)-4-methyl-1-oxo-1-(((S)-1-oxo-3-((S)-2-oxopyrrolidin-3-yl)propan-2-yl)amino)pentan-2-yl)carbamate], with 600 nM; and `CC(C)C[C@H](NC(=O)OC1(Cc2cccnc2)CC1)C(=O)N[C@@H](C[C@@H]1CCNC1=O)C(O)S(=O)(=O)O` (stereo partly drawn) [Compound C62, (2S)-1-Hydroxy-2-((S)-4-methyl-2-(((1-(pyridin-3-ylmethyl)cyclopropoxy)carbonyl)amino)pentanamido)-3-((S)-2-oxopyrrolidin-3-yl)propane-1-sulfonate], with 4600 nM; and `CC(C)C[C@H](NC(=O)OC1(Cc2ccccc2)CCC1)C(=O)N[C@@H](C[C@@H]1CCNC1=O)C(O)S(=O)(=O)O` (stereo partly drawn) [Compound C63, (2S)-2-((S)-2-(((1-Benzylcyclobutoxy)carbonyl)amino)-4-methylpentanamido)-1-hydroxy-3-((S)-2-oxopyrrolidin-3-yl)propane-1-sulfonate], with 1600 nM. Then `CC(=O)N1CCC2(CC1)CC(CC(C=O)NC(=O)[C@H](CC(C)C)NC(=O)OCC1CCC(F)(F)CC1)C(=O)N2` (stereo partly drawn) [Compound C64, (4,4-Difluorocyclohexyl)methyl ((2S)-1-((1-(8-acetyl-2-oxo-1,8-diazaspiro[4.5]decan-3-yl)-3-oxopropan-2-yl)amino)-4-methyl-1-oxopentan-2-yl)carbamate], with 100 nM; and `CCCCCOC(=O)N[C@@H](CC(C)C)C(=O)NC(C)(C=O)CC1CCNC1=O` (stereo partly drawn) [Compound C65, Pentyl ((2S)-4-methyl-1-((2-methyl-1-oxo-3-(2-oxopyrrolidin-3-yl)propan-2-yl)amino)-1-oxopentan-2-yl) carbamate], with 26900 nM. For `CC(C)C[C@H](NC(=O)OCc1cccc(Cl)c1)C(=O)NC(C=O)CC1CC2(CCCCC2)NC1=O` (stereo partly drawn) [Compound C66, 3-Chlorobenzyl ((2S)-4-methyl-1-oxo-1-((1-oxo-3-(2-oxo-1-azaspiro[4.5]decan-3-yl)propan-2-yl)amino)pentan-2-yl)carbamate], the IC50 was 100 nM. Turning to `CC(=O)N1CCC2(CC1)CC(CC(C=O)NC(=O)[C@H](Cc1cccc(F)c1)NC(=O)OCc1cccc(Cl)c1)C(=O)N2` (stereo partly drawn) [Compound C67, 3-Chlorobenzyl ((2S)-1-((1-(8-acetyl-2-oxo-1,8-diazaspiro[4.5]decan-3-yl)-3-oxopropan-2-yl)amino)-3-(3-fluorophenyl)-1-oxopropan-2-yl)carbamate], the IC50 was determined as 300 nM.

For `CC(C)C[C@H](NC(=O)OC(Cc1ccccc1)c1ccccc1)C(=O)N[C@@H](C[C@@H]1CCNC1=O)C(=O)C(=O)NCc1ccccn1` (stereo partly drawn) [Compound C68, 1,2-Diphenylethyl ((S)-1-(((S)-3,4-dioxo-1-((S)-2-oxopyrrolidin-3-yl)-4-((pyridin-2-ylmethyl)amino)butan-2-yl)amino)-4-methyl-1-oxopentan-2-yl)carbamate], the IC50 amounted to 2100 nM.

As a reminder, the IC50 is the concentration needed to halve the response being measured.
